Measurements published in BindingDB's records for doi:10.1021/jm0101803 (University of Illinois At Chicago, 2001).

Biological target: Beta-secretase 1 (Homo sapiens, UniProt P56817)
Experiment: Enzyme Inhibition Measurements
Details: pH 4.5; 37 °C
Experimental: Enzyme activities were assayed by monitoring the hydrolysis of substrate in the presence or absence of inhibitor compounds. The hydrolysis was recorded as the increase in fluorescence intensity over a 10 min time period. […] The Ki was calculated by using Ki = IC50/ (1 + [S]/Km), and a Km value determined according to Michaelis-Menten.

Beta-secretase 1, sequence (P56817 whole entry): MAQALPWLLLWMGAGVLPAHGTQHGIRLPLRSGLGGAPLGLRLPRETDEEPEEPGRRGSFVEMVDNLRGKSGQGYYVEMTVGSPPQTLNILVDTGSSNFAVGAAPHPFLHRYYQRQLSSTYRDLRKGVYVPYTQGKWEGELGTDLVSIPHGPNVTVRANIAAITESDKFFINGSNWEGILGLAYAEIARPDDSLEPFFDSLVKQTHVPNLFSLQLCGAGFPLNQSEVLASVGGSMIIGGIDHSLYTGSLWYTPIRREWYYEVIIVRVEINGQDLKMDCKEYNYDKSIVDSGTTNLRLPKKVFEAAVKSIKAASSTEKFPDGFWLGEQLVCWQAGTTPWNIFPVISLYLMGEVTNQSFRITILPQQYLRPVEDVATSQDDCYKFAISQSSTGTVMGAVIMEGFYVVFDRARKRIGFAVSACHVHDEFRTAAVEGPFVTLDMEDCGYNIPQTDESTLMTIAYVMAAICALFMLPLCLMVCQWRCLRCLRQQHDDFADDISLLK

## CC(C)C[C@H](NC(=O)[C@H](CC(N)=O)NC(=O)[C@@H](N)C(C)C)[C@@H](O)C[C@@H](C)C(=O)N[C@@H](C)C(=O)N[C@@H](CCC(=O)O)C(=O)N[C@@H](Cc1ccccc1)C(=O)O [Val-Asn-LeuAla-Ala-Glu-Phe]
  Ki: 36 nM
